From US20110165173A1, “THERAPEUTIC AGENT AND DETECTION REAGENT FOR ARTERIOSCLEROTIC DISEASE WHICH TARGETS FOR SALUSIN” (PROTEINEXPRESS CO., LTD., priority 2007, published 2011) come the findings set out here.

The subject of assay [1] is ACAT-1 protein expression. The assay is described as follows: ACAT-1 protein expression in human monocyte-derived macrophages during differentiation (Western blotting). The class given is cell-based. Particulars: for ACAT-1 protein expression vs control cells: 0.6 nM. The protocol: In the Examples below, monocytes were prepared from human peripheral blood and cultured for 7 days so as to have differentiated into macrophages. At such time, salusin-α (0 to 10 nM) and salusin-β (0 to 10 nM) were simultaneously added thereto, and the effects of salusin were examined.
Culture of monocytes obtained from human peripheral blood was performed by a known method. Isolated monocytes were cultured with the addition of RPMI-1640 (15 mL) and then the floating monocytes were subjected to cell counting with a blood cell counting chamber. The cells were seeded on a 6-cm dish so as to result in 4×10^6 cells/2 mL. The monocytes were kept warm at 37° C. in the presence of 5% CO2 for 1 hour such that the cells were allowed to adhere to the dish. The medium was substituted with RPMI-1640 containing 10% human serum, followed by culture for 7 days. The medium was changed every 3 days.
ACAT-1 is an endoplasmic reticulum enzyme that converts intracellular free cholesterol into cholesterol ester. The ACAT-1 gene is important for foaming of macrophages. In order to examine effects of salusin-α and salusin-β on the ACAT-1 expression, the ACAT-1 protein expression was examined by Western blotting.
Monocyte-derived macrophages that had been cultured for 7 days were washed with PBS 3 times, followed by solubilization with the addition of 10% SDS (sodium dodecyl sulfate) (100 μL) to each dish. Each cell extraction solution was scooped up with a cell scraper, followed by pulverization with the use of a 1-mL TERUMO syringe and a 23-G injection needle for fragmentation (shearing). The resultant was centrifuged at 15,000 rpm for 3 minutes (Himac CF15D2 high-speed micro refrigerated centrifuge; Hitach, Ltd.). The supernatant protein concentration was assayed by the bicinchoninic acid (BCA) method (Pierce) and used as a cell extraction solution for Western blotting.
(§1) For ACAT-1 protein detection, an anti-human ACAT-1 polyclonal antibody (DM10 donated from Dr. Chang, Dartmouth Medical School) [Chang CCY et al., J Biol Chem. 1995; 270: 29532-29540] prepared by immunizing a rabbit was used as a primary antibody (final concentration: 0.5 μg/mL) for a reaction on a transfer membrane at room temperature for 1 hour. The transfer membrane was washed with PBS-0.1% Tween 20, followed by a reaction with a secondary antibody (anti-rabbit IgG antibody: anti-rabbit IgG donkey antibody conjugated with horseradish peroxidase (HRP) (GE Healthcare Bio-Science)) at room temperature for 1 hour. For a secondary antibody, a stock solution (0.5 μL) was diluted 10,000-fold with PBS-0.1% Tween 20 (5 mL), and the resultant was used. Washing was carried out with PBS-0.1% Tween 20, followed by ACAT-1 protein detection with the use of Lumi-Light Plus (PerkinElmer Life Sciences).
Human peripheral blood monocytes (4×10^6 cells/6-cm dish) were cultured for 7 days in an RPMI-1640 medium (2 mL) containing 10% human serum so as to differentiate into macrophages. In order to examine the salusin dose-dependent effects on the ACAT-1 protein expression, salusin-α or salusin-β was added to the medium at a concentration of 0, 0.2, 0.4, 0.6, 0.8, or 1.0 nM at the beginning of culture. On Day 7 of culture, macrophage cells differentiated from monocytes were washed with PBS and then solubilized in 10% SDS (100 μL), followed by Western blotting with the use of an ACAT-1-specific antibody. […]

Assay [2] deals with ACAT-1 protein expression. The assay is described as follows: ACAT-1 protein expression in cultured human monocyte-derived macrophages after differentiation (Western blotting). The class given is cell-based. Particulars: cultured 3 more days. The procedure:
as §1
In each of the experiments in Examples 1 to 6, salusin-α and salusin-β were added in the phase of differentiation of cultured human monocytes into macrophages and cells obtained on Day 7 of culture were used to examine the effects of salusin-α and salusin-13. In this Example, it was examined whether salusin-α and salusin-β would have similar effects on ACAT-1 protein expression in macrophages obtained after differentiation. […]

Take “salusin-β: peptide (SEQ ID NO: 3) comprising 20 amino acid residues, generated by processing from preprosalusin (AIFIFIRWLLKLGHHGRAPP; listed as Homo sapiens) [reference compound]”: the “ACAT-1 protein expression level relative to control” value in assay [1] (0.6 nM (peak level), added at beginning of 7-day culture, attenuated above 0.6 nM) came out at 2.1 times; in assay [2] (0.6 nM added on Day 7 after differentiation) it was 2.2 times. Also, the “ACAT-1 protein expression vs control cells” value in assay [1] (Day 5 or later) is given as “significantly increased”.

With “salusin-α: peptide (SEQ ID NO: 1) comprising 28 amino acid residues, generated by processing from preprosalusin (SGALPPAPAAPRPALRAQRAGPAGPGAK; listed as Homo sapiens)”, the “inhibition of ACAT-1 protein expression” value in assay [1] (0 to 1.0 nM added at beginning of 7-day culture, concentration-dependent) is “approximately 40%”. In addition, the “ACAT-1 protein expression vs control cells” value is on record as “not found to significantly differ” in assay [1] (Day 1, 3, or 5 after seeding) and “significantly inhibited” in assay [1] (Day 7). In addition, in assay [2] (1.0 nM added on Day 7 after differentiation), the “ACAT-1 protein expression level, percent of that of the control” value is 60%.
